# US12285460B2, “Pharmaceutical compositions” (RHYTHM PHARMACEUTICALS, INC., priority 2013, dated 2025)
# Bridge positions count the residues as written; N and C are the ends. Square brackets hold non-standard residues; d marks the D form. Peptide text beside a SMILES is read from it. dPhe(4-F) = N[C@H](Cc1ccc(F)cc1)C(=O)O; Pen = CC(C)(S)[C@H](N)C(=O)O; hCys = N[C@@H](CCS)C(=O)O
# How the values were obtained:
# MC1R = target: T1, MC1R (Homo sapiens, UniProt Q01726); assay: cAMP assay (EC50), MC1R; type: cell-based; conditions: EC50(MC1R)/EC50(MC4R)
# T1 construct: host or cells: CHO-K1 (ECL assay)
# T1 sequence (Q01726 whole entry): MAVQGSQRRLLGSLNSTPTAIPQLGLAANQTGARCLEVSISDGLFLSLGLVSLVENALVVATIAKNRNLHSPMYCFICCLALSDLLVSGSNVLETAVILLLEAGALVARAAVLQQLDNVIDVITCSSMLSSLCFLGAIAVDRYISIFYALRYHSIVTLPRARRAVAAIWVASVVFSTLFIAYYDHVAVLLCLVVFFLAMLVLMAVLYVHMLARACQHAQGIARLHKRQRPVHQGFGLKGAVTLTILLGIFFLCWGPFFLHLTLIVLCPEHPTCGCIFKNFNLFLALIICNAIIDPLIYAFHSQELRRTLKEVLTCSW
# Description: (§1) Stimulation of intracellular cyclic AMP (cAMP) levels by the peptides is determined in a dose dependent manner by an electrochemiluminescence (ECL) assay (Meso Scale Discovery, Gaithersburg, MD, USA; referred to hereinafter as “MSD”). Briefly, the CHO-K1 cells stably expressing the hMC receptor subtypes are suspended in RMPI 1640® assay buffer (RMPI 1640 buffer contains 0.5 mM IBMX, and 0.2% protein cocktail (MSD blocker A)). About 7,000 cells/well of the transgenic CHO-K1 cells stably expressing hMC receptor subtypes 1, 3, 4 or 5 are dispensed in 384-well Multi-Array plates (MSD) containing integrated carbon electrodes and coated with anti-cAMP antibody. Increasing concentrations of the test compounds are added and the cells are incubated for approximately 40 minutes at 37° C. A cell lysis buffer (HEPES-buffered saline solution with MgCl2 and Triton X-100® at pH 7.3) containing 0.2% protein cocktail and 2.5 nM TAG™ ruthenium-labeled cAMP (MSD) is added and the cells are incubated for approximately 90 minutes at room temperature. At the end of the second incubation period, the read buffer (Tris-buffered solution containing an ECL co-reactant and Triton X-100 at pH 7.8) is added and the cAMP levels in the cell lysates are immediately determined by ECL detection with a Sector Imager 6000 Reader® (MSD). Data are analyzed using a computer-assisted non-linear regression analysis (XL fit; IDBS) and reported as either an EC50 value.
# (§2) Human MC4-R transfected cells are grown to confluence in 96 well plates (plating approximately 250,000 cells per well). The cells are treated in triplicate sets with 0.2 mM isobutylmethylxanthine (IBMX) and graded concentrations of the peptide or alternatively the peptide in the presence of 20 nM NDP-MSH. Cells similarly treated but with only 20 nM NDP-MSH serve as positive controls in a volume of 200 μL. A buffer blank serving as a negative control is also included. After incubation of one hour at 37° C., the cells are lysed by the addition of 50 μL of a cell lysis buffer. Total cAMP accumulated in 250 μL of this incubation medium is quantitated using a commercially available low pH cAMP assay kit (Amersham BioSciences) as per procedure specified by the kit supplier. […] The data for agonist is plotted and curve fitted to determine the EC50 value. A peptide showing accumulation in the same range as the negative control (buffer blank in the absence of alpha-MSH) is ineffective at the test concentration. A peptide showing attenuated accumulation is considered to be an antagonist if there is inhibition in cAMP when alpha-MSH is also present in the assay. Similar assay can be performed with hMC-1R, hMC-3R, and hMC-5R cells.
# (§3) A chemiluminescence readout system that uses an enzyme fragment complementation (EFC) system with β-galactosidase (β-Gal) as the functional reporter system was used. This assay system for various melanocortin receptor systems is commercially available (cAMP Hunter GPCR assay system, Discoverx Corp, Fremont, CA). This assay utilizes the β-Gal enzyme that is split into two complementary portions; EA for Enzyme Acceptor and ED for Enzyme Donor. In the assay, the ED portion fused to cAMP is made to compete with cAMP generated by cells for binding to a cAMP-specific antibody. The EA is then added to form active β-Gal with any unbound ED-cAMP.
# (§4) Briefly, 10000 cells per well are plated overnight and each well (cells incubated with 10 μl assay buffer) is then incubated with 4× serial concentration of the test compound in the cell assay buffer (5 μL) and cAMP antibody reagent (5 μL) for 30 min at 37° C. The cell lysis buffer (20 μL) containing ED-cAMP coupled enzyme fragment and the reporter substrate (Emerald II-Galacton Star, 5:1) is then added and incubated for 60 min at room temperature. Next, 20 μL of EA β-Gal fragment reagent is added.
# MC3R = target: T2, MC3R (Homo sapiens, UniProt P41968); assay: cAMP assay (EC50), MC3R; type: cell-based; conditions: EC50(MC3R)/EC50(MC4R)
# T2 construct: host or cells: CHO-K1 (ECL assay)
# T2 sequence (P41968 whole entry): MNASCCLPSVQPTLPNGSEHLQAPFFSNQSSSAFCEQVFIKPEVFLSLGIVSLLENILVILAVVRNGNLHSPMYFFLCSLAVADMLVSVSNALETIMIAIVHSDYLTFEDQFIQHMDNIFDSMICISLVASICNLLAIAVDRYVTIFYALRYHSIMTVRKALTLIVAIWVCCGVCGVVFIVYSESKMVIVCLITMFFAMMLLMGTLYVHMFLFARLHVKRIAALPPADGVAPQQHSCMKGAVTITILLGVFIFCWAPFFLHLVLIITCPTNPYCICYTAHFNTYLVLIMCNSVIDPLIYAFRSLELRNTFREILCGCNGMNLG
# Description: as §1, §2, §3, §4
# MC5R = target: T3, MC5R (Homo sapiens, UniProt P33032); assay: cAMP assay (EC50), MC5R; type: cell-based; conditions: for Ratios of EC50 values MC5/4: EC50(MC5R)/EC50(MC4R)
# T3 construct: host or cells: CHO-K1 (ECL assay)
# T3 sequence (P33032 whole entry): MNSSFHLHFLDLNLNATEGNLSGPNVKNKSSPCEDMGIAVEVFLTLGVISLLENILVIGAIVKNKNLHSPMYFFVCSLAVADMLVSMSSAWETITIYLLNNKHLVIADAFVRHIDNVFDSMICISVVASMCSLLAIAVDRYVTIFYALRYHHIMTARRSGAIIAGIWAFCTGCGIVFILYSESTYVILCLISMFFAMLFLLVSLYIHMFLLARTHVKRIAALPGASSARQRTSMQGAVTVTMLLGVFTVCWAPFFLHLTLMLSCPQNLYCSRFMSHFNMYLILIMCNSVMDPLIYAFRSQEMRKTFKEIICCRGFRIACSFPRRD
# Description: Stimulation of intracellular cyclic AMP (cAMP) levels by the peptides is determined in a dose dependent manner by an electrochemiluminescence (ECL) assay (Meso Scale Discovery, Gaithersburg, MD, USA; referred to hereinafter as “MSD”). Briefly, the CHO-K1 cells stably expressing the hMC receptor subtypes are suspended in RMPI 1640® assay buffer (RMPI 1640 buffer contains 0.5 mM IBMX, and 0.2% protein cocktail (MSD blocker A)). About 7,000 cells/well of the transgenic CHO-K1 cells stably expressing hMC receptor subtypes 1, 3, 4 or 5 are dispensed in 384-well Multi-Array plates (MSD) containing integrated carbon electrodes and coated with anti-cAMP antibody. Increasing concentrations of the test compounds are added and the cells are incubated for approximately 40 minutes at 37° C. A cell lysis buffer (HEPES-buffered saline solution with MgCl2 and Triton X-100® at pH 7.3) containing 0.2% protein cocktail and 2.5 nM TAG™ ruthenium-labeled cAMP (MSD) is added and the cells are incubated for approximately 90 minutes at room temperature. At the end of the second incubation period, the read buffer (Tris-buffered solution containing an ECL co-reactant and Triton X-100 at pH 7.8) is added and the cAMP levels in the cell lysates are immediately determined by ECL detection with a Sector Imager 6000 Reader® (MSD). Data are analyzed using a computer-assisted non-linear regression analysis (XL fit; IDBS) and reported as either an EC50 value. […]
# as §3, with “ED-cAMP. This active enzyme then converts a chemiluminescent substrate to generate an output signal that is recorded on a standard microplate reader.” for “ED-cAMP.”
# as §4
# [1] = Pharmacokinetics of formulations after single subcutaneous bolus in Cynomolgus monkeys; type: in vivo; conditions: cynomolgus monkey, plasma, sc, 0.5 mg/kg body weight
# Description: A group of Cynomolgus monkeys (average body weight range of 3 to 7 kg) were randomized into a group of 6 for each formulation described above and for Formulation 3A. Each monkey in the cohort was subcutaneously administered in the scapular area with a single bolus dose of a formulation calculated at 0.5 mg/kg body weight. Blood samples were taken at various time points staring at 30 minutes post dosing to 36 or 48 hours. The plasma was harvested and peptide drug concentration assays using LC-MS/MS technique. The pharmacokinetic data is presented in Table 3 below, and the pharmacokinetic profile is set forth graphically in FIG. 1, FIG. 2, and FIG. 3.
structure (smiles),measurement,setting,value
"CC(=O)N[C@@H](CCCNC(=N)N)C(=O)N[C@H]1CSSC[C@@H](C(N)=O)NC(=O)[C@H](Cc2c[nH]c3ccccc23)NC(=O)[C@H](CCCNC(=N)N)NC(=O)[C@@H](Cc2ccccc2)NC(=O)[C@@H]2CCCN2C(=O)[C@@H](C)NC1=O [Compound 13, Ac-Arg-cyclo[Cys-D-Ala-Pro-D-Phe-Arg-Trp-Cys]-NH2] (Ac-RC[dA]P[dF]RWC-NH2; disulfide 2-8)",Ratios of EC50 values MC1/4,MC1R,5
same,Ratios of EC50 values MC3/4,MC3R,>200
same,Ratios of EC50 values MC5/4,MC5R,13
"CC(=O)N[C@@H](CCCNC(=N)N)C(=O)N[C@H]1CSSC[C@@H](C(N)=O)NC(=O)[C@H](Cc2c[nH]c3ccccc23)NC(=O)[C@H](CCCNC(=N)N)NC(=O)[C@@H](Cc2ccc(F)cc2)NC(=O)[C@@H]2CCCN2C(=O)[C@@H](C)NC1=O [Compound 14, Ac-Arg-cyclo[Cys-D-Ala-Pro-D-Phe(p-F)-Arg-Trp-Cys]-NH2] (Ac-RC[dA]P[dPhe(4-F)]RWC-NH2; disulfide 2-8)",Ratios of EC50 values MC1/4,MC1R,7
same,Ratios of EC50 values MC3/4,MC3R,>400
same,Ratios of EC50 values MC5/4,MC5R,12
"CC(=O)N[C@@H](CCCNC(=N)N)C(=O)N[C@H]1CCSSC[C@@H](C(N)=O)NC(=O)[C@H](Cc2c[nH]c3ccccc23)NC(=O)[C@H](CCCNC(=N)N)NC(=O)[C@@H](Cc2ccccc2)NC(=O)[C@H](C)NC1=O [Compound 15, Ac-Arg-cyclo[hCys-Ala-D-Phe-Arg-Trp-Cys]-NH2] (Ac-R[hCys]A[dF]RWC-NH2; disulfide 2-7)",Ratios of EC50 values MC1/4,MC1R,15
same,Ratios of EC50 values MC3/4,MC3R,3.8
same,Ratios of EC50 values MC5/4,MC5R,161
"CC(=O)N[C@@H](CCCNC(=N)N)C(=O)N[C@H]1CCSSC[C@@H](C(N)=O)NC(=O)[C@H](Cc2c[nH]c3ccccc23)NC(=O)[C@H](CCCNC(=N)N)NC(=O)[C@@H](Cc2ccccc2)NC(=O)[C@@H](C)NC1=O [Compound 16, Ac-Arg-cyclo[hCys-D-Ala-D-Phe-Arg-Trp-Cys]-NH2] (Ac-R[hCys][dA][dF]RWC-NH2; disulfide 2-7)",Ratios of EC50 values MC1/4,MC1R,120
same,Ratios of EC50 values MC3/4,MC3R,420
same,Ratios of EC50 values MC5/4,MC5R,>1338
"CC(=O)N[C@@H](CCCNC(=N)N)C(=O)N[C@H]1CCSSC(C)(C)[C@@H](C(N)=O)NC(=O)[C@H](Cc2c[nH]c3ccccc23)NC(=O)[C@H](CCCNC(=N)N)NC(=O)[C@@H](Cc2ccccc2)NC(=O)[C@@H](C)NC1=O [Compound 17, Ac-Arg-cyclo[hCys-D-Ala-D-Phe-Arg-Trp-Pen]-NH2] (Ac-R[hCys][dA][dF]RW[Pen]-NH2; disulfide 2-7)",Ratios of EC50 values MC1/4,MC1R,15
same,Ratios of EC50 values MC3/4,MC3R,17
same,Ratios of EC50 values MC5/4,MC5R,159
"CC(=O)N[C@@H](CCC(=O)O)C(=O)N[C@H]1CSSC[C@@H](C(N)=O)NC(=O)[C@H](Cc2c[nH]c3ccccc23)NC(=O)[C@H](CCCNC(=N)N)NC(=O)[C@@H](Cc2ccccc2)NC(=O)[C@H](Cc2c[nH]cn2)NC(=O)[C@H](C)NC1=O [Compound 22, Ac-Glu-cyclo[Cys-Ala-His-D-Phe-Arg-Trp-Cys]-NH2] (Ac-ECAH[dF]RWC-NH2; disulfide 2-8)",Ratios of EC50 values MC1/4,MC1R,>3
same,Ratios of EC50 values MC3/4,MC3R,>20
same,Ratios of EC50 values MC5/4,MC5R,>2563
CC(=O)N[C@@H](CCCNC(=N)N)C(=O)N[C@H]1CSSC[C@@H](C(N)=O)NC(=O)[C@H](Cc2c[nH]c3ccccc23)NC(=O)[C@H](CCCNC(=N)N)NC(=O)[C@@H](Cc2ccccc2)NC(=O)[C@H](Cc2c[nH]cn2)NC(=O)[C@@H](C)NC1=O [Peptide 1],Cmax,[1],1100 ng/mL
same,Tmax,[1],30 min
same,EC50,MC5R,1600 nM
